Key:
[1] = system: Rattus norvegicus; experiment: Antipsychotic activity at a dose 10 times the ED50 value for CAR block for production of catalepsy in the rat (following i.p. dosing); format: functional; details: ip
[2] = system: Rattus norvegicus; experiment: The compound was measured at a dose 10 times the ED50 value for CAR block for production of catalepsy in the rat via oral administration.; format: functional
[3] = target: Serotonin 2 (5-HT2) receptor (Rattus norvegicus, UniProt P30994+P08909+P14842); experiment: The compound was tested for its binding affinity towards 5-hydroxytryptamine 2 receptor by displacing [3H]ketanserin radioligand in rat cerebral cortex; format: tissue-based
[4] = system: Rattus norvegicus; experiment: The percentage production of catalepsy in rat at a dose of 57 mg/kg ip.; format: functional
[5] = target: Serotonin 1 (5-HT1) receptor (Rattus norvegicus, UniProt P28564+P30940+P19327+P28565); experiment: The compound was tested for its binding affinity towards 5-hydroxytryptamine 1 receptor by displacing [3H]5-HT radioligand in rat cerebral cortex; format: tissue-based
[6] = target: T1, Adrenergic receptor alpha-1 (Rattus norvegicus, UniProt P15823+P23944+P43140); experiment: The compound was tested for its binding affinity towards Alpha-1 adrenergic receptor by displacing [3H]WB-4101 radioligand in rat cerebral cortex; format: tissue-based
T1 sequence (P15823 whole entry): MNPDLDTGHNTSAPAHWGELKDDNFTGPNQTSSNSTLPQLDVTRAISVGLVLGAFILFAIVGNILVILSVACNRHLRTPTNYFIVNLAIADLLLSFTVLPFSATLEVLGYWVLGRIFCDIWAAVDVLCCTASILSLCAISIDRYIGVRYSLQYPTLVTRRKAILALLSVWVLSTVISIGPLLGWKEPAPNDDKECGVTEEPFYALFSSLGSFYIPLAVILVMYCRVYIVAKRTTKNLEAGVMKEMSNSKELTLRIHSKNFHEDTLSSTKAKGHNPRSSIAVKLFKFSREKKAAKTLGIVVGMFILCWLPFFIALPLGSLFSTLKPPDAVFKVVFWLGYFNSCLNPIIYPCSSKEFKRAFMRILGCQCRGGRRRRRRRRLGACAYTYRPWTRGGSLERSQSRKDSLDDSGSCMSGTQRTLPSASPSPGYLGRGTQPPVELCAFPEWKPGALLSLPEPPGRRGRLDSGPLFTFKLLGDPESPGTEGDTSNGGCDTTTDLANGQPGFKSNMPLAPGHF
T1 sequence (P23944 whole entry): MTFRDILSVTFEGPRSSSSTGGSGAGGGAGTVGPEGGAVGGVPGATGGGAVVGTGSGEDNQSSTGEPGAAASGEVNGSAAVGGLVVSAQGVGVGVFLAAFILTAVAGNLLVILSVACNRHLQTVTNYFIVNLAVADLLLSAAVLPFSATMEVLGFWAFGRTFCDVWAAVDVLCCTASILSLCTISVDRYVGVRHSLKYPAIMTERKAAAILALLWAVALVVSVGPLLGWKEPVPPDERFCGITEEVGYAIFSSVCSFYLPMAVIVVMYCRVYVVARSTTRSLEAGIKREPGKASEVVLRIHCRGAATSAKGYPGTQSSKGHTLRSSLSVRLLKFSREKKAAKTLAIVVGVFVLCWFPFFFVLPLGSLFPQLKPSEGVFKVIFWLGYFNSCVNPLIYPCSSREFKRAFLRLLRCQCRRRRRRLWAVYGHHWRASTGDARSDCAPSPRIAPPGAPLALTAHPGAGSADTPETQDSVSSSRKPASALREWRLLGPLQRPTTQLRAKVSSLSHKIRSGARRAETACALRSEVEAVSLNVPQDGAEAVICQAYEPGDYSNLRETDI
T1 sequence (P43140 whole entry): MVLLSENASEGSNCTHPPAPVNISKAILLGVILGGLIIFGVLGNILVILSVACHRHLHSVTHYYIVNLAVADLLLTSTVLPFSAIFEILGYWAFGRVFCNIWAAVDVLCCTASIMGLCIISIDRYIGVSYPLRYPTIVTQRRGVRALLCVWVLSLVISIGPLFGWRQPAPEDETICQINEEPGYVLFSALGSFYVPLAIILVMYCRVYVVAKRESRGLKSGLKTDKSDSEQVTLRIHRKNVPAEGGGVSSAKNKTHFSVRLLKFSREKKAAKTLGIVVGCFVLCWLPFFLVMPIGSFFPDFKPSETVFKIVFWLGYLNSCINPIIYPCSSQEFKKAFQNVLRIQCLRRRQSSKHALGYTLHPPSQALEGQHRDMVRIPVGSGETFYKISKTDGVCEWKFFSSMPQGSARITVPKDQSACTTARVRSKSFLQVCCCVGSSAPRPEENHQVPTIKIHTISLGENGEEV

[7] = system: Rattus norvegicus; experiment: The percentage production of catalepsy in rat at a dose of 27 mg/kg ip.; format: functional
[8] = species on record: Rattus norvegicus; experiment: ED50 value for catalepsy indicates the dose required to produce a 50% of maximum catalepsy score.; format: functional
[9] = system: Rattus norvegicus; experiment: The percentage production of catalepsy in rat at a dose of 70 mg/kg ip.; format: functional
[10] = target: D(2) dopamine receptor (Rattus norvegicus, UniProt P61169); experiment: The compound was tested for its binding affinity towards Dopamine receptor D2 by displacing [3H]spiperone radioligand in rat striatum
[11] = system: Rattus norvegicus; experiment: The percentage production of catalepsy in rat at a dose of 20 mg/kg ip.; format: functional
[12] = target: 5-hydroxytryptamine receptor 1B (Rattus norvegicus, UniProt P28564); experiment: The compound was tested for its binding affinity towards 5-hydroxytryptamine 1B receptor by displacing [3H]serotonin radioligand in rat cerebral cortex; format: tissue-based
[13] = system: Rattus norvegicus; experiment: The percentage production of catalepsy in rat at a dose of 50 mg/kg ip.; format: functional
[14] = system: Rattus norvegicus; experiment: The percentage production of catalepsy in rat at a dose of 100 mg/kg ip.; format: functional
[15] = system: Rattus norvegicus; experiment: The percentage production of catalepsy in rat at a dose of 37 mg/kg ip.; format: functional
[16] = target: T2, 5-hydroxytryptamine receptor 1A (Rattus norvegicus, UniProt P19327); experiment: Binding affinity towards 5-hydroxytryptamine 1A receptor by displacing [3H]WB-4101 from rat hippocampus; format: tissue-based
T2 sequence (P19327 whole entry): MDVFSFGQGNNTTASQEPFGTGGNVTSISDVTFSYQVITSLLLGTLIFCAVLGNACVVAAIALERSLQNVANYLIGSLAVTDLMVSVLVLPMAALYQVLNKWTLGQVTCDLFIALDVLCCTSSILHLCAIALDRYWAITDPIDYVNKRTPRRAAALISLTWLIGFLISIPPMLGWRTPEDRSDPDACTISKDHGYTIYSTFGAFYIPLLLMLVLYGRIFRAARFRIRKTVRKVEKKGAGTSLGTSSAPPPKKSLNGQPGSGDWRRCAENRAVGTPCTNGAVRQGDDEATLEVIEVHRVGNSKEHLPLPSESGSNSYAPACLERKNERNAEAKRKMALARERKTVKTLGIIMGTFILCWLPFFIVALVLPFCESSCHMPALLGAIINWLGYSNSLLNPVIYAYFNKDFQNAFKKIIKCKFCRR

[17] = system: Rattus norvegicus; experiment: The percentage production of catalepsy in rat at a dose of 54 mg/kg ip.; format: functional
[18] = system: Rattus norvegicus; experiment: The percentage production of catalepsy in rat at a dose of 90 mg/kg ip.; format: functional
[19] = species on record: Rattus norvegicus; experiment: ED50 value for catalepsy indicates the dose required to produce a 50% of maximum catalepsy score. parentheses; format: functional
[20] = Rattus norvegicus, po, read-out: ED50

5-hydroxytryptamine receptor 1B, sequence (P28564 whole entry): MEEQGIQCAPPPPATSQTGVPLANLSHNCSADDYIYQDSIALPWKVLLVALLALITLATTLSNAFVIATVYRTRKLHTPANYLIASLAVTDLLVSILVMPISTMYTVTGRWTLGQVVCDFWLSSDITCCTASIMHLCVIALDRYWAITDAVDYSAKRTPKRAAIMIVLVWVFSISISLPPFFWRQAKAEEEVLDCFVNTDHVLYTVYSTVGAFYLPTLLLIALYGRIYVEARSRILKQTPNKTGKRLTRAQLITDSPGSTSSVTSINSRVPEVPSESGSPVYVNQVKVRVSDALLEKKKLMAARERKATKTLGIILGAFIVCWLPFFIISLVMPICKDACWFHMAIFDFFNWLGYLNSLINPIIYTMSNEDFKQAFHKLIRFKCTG
D(2) dopamine receptor, sequence (P61169 whole entry): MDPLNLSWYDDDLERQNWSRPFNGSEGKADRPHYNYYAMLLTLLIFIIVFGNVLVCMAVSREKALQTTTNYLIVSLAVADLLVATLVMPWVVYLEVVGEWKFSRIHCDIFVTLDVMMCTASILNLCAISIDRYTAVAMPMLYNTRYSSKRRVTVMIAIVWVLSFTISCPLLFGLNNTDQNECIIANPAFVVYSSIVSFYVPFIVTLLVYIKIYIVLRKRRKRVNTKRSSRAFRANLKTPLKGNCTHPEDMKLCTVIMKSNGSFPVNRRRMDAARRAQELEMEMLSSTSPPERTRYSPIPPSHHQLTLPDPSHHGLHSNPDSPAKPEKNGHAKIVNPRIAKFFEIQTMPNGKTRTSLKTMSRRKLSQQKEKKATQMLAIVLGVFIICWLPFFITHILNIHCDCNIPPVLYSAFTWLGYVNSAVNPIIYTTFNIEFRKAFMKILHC

SMILES | ED50 [1] [mg/kg] | ED50 [2, 20] [mg/kg] | Ki [3] [nM] | Ki [5] [nM] | Ki [6] [nM] | other results
CC(C)Oc1ccccc1N1CCN(Cc2ccc(CN3CCCCCC3=O)n2C)CC1 | 5.7 | 18.9 | 1000 | 68.8 | 16.3 | % catalepsy at 57 mg/kg [4]: 26%
CC(C)Oc1ccccc1N1CCN(Cc2ccc(CN3CCCC3=O)n2C)CC1 | 2.2 | > 20 | 386 | 120 | 7.3 | % catalepsy at 27 mg/kg [7]: 52%
CN1CCN(C2=Nc3cc(Cl)ccc3Nc3ccccc32)CC1 [CLOZAPINE] | – | 32.5 | – | – | – | ED50 [8]: > 70 mg/kg; % catalepsy at 70 mg/kg [9]: 10%
Cc1nc2sccn2c(=O)c1CCN1CCC(=C(c2ccc(F)cc2)c2ccc(F)cc2)CC1 [RITANSERIN] | > 3 | – | – | – | 49.5 | Ki [10]: 53.2 nM
CCOc1ccccc1N1CCN(Cc2ccc(CN3CCCC3=O)n2C)CC1 | 1.8 | 32 | 455 | 76 | 27.5 | % catalepsy at 20 mg/kg [11]: 97%
Cn1c(CN2CCN(c3cccc(Cl)c3)CC2)ccc1CN1CCCCC1=O | 10.4 | – | – | – | – | Ki [12]: 95 nM; % catalepsy at 50 mg/kg [13]: 28%
CC(C)c1ccccc1N1CCN(Cc2ccc(CN3CCCCCC3=O)n2C)CC1 | 10 | > 30 | 110 | 82.1 | 53.9 | % catalepsy at 100 mg/kg [14]: 17%
CCC(C)Oc1ccccc1N1CCN(Cc2ccc(CN3CCCCC3=O)n2C)CC1 (configuration not stated) | 3.7 | – | 267 | 29.3 | 17.4 | Ki [12]: 45 nM; % catalepsy at 37 mg/kg [15]: 17%; Ki [16]: 1.8 nM
CC(C)Oc1ccccc1N1CCN(Cc2ccc(CN3CCCCC3=O)n2C)CC1 [RWJ-25730] | – | – | 1006 | – | – | % catalepsy at 54 mg/kg [17]: 12.1%; ED50 [2]: 10.4 mg/kg
CC(C)c1ccccc1N1CCN(Cc2ccc(CN3CCCCC3=O)n2C)CC1 | 8.9 | > 30 | 137 | 41.3 | – | % catalepsy at 90 mg/kg [18]: 19%
COc1ccccc1N1CCNCC1 | 5.6 | – | > 100 | 28 | – | ED50 [19]: > 45 mg/kg

Reference: ChEMBL document CHEMBL1126154, “Pyrrole mannich bases as potential antipsychotic agents” (J Med Chem, 1992)
